Assay results taken from patent publication US20240417410A1, “TRICYCLIC COMPOUNDS FOR THE TREATMENT OF CANCER” (Hoffmann-La Roche Inc., priority 2023, published 2024).
Read-outs that look alike come from different tables or passages of the source.

What was measured:
Assay in all cases: Cell proliferation, CTG 3D, 7 d
Assay type in all cases: cell-based
SW 1088 = details: Homo sapiens, SW1088
Method: (§1) On Day-1, cells were plated in 384-well round-bottom ultra-low adhesion plates (cat. Corning 3830, with cell density adjusted according to Table 3. The assay plate was then centrifuged at 1000 rpm for 1 minute to ensure even distribution of cells. The plate was incubated at 37° C. in a 5% CO2 atmosphere (It is worth noting that for SW1271 cell plate, it needs to be incubated in an incubator without additional CO2).
(§2) On Day 0, Example 24 or A122 was added to each well using a Tecan HP D300E dispenser, with a 3-fold dilution across 9 doses. The final concentration of DMSO was normalized to 0.2%. The assay plate was then centrifuged at 1000 rpm for 1 minute and incubated for 7 days.
(§3) On Day 7, CellTiter-Glo (CTG) 3D reagent (Promega G9683) was dispensed into each well of a 384-well plate using a multi-drop dispenser (Thermo Scientific 66413). A liquid handling automation workstation (Bravo with a 384-well head) was used to mix the CTG reagents. Plates were left on a shaker for 30 minutes at 450 rpm, shielded from light.
(§4) For data analysis, the XL-fit software (Supplier: ID Business Solutions Ltd., Software version: XL fit 5.0) was utilized. The percentage of inhibition was calculated using the formula: Inhibition %=(Max-Sample value)/(Max-Min)×100. Curve fitting was performed as follows: For complete dose-response curves, the relative IC50 was reported from the fit. For incomplete curves, if minimal inhibition was greater than 50%, an IC50 less than the lowest compound concentration was reported. If minimal inhibition was between 20% and 50%, the bottom was locked at 0% and the IC50 was reported. If maximal inhibition was less than 50%, an IC50 greater than the highest compound concentration was reported.

PL-21 = details: Homo sapiens
Method: as §1, §2, §3, §4

PANC-1 = details: Homo sapiens; PANC-1, KRAS (G12D)
Method: as §1, §2, §3, §4

H9 = details: Homo sapiens
Method: as §1, §2, §3, §4

NCI-H2087 = details: Homo sapiens
Method: as §1, §2, §3, §4

COR-L23 = details: Homo sapiens; COR-L23, KRAS (G12V)
Method: as §1, §2, §3, §4

PA-1 = details: Homo sapiens; PA-1, NRAS (p.G12D)
Method: as §1, §2, §3, §4

KYSE-30 = details: Homo sapiens
Method: as §1, §2, §3, §4

KURAMOCHI = details: Homo sapiens, KRAS (WT ampl)
Method: as §1, §2, §3, §4

SW 1990 = details: Homo sapiens, SW1990; SW 1990, KRAS (G12D)
Method: as §1, §2, §3, §4

DLD-1 = details: Homo sapiens
Method: as §1, §2, §3, §4

CHP-212 = details: Homo sapiens
Method: as §1, §2, §3, §4

LoVo = details: Homo sapiens
Method: as §1, §2, §3, §4

SJSA-1 = details: Homo sapiens
Method: as §1, §2, §3, §4

NCI-H747 = details: Homo sapiens
Method: as §1, §2, §3, §4

GP5d = details: Homo sapiens, KRAS (G12D)
Method: as §1, §2, §3, §4

SK-CO-1 = details: Homo sapiens; SK-CO-1, KRAS (G12V)
Method: as §1, §2, §3, §4

NCI-H727 = details: Homo sapiens; NCI-H727, KRAS (G12V)
Method: as §1, §2, §3, §4

LU99 = details: Homo sapiens, Lu-99; LU99, KRAS (G12C)
Method: as §1, §2, §3, §4

ONS-76 = details: Homo sapiens
Method: as §1, §2, §3, §4

GP2d = details: Homo sapiens, KRAS (G12D)
Method: as §1, §2, §3, §4

KMS-28BM = details: Homo sapiens
Method: as §1, §2, §3, §4

AML-193 = details: Homo sapiens
Method: as §1, §2, §3, §4

KNS-62 = details: Homo sapiens
Method: as §1, §2, §3, §4

Calu-6 = details: Homo sapiens
Method: as §1, §2, §3, §4

SK-N-SH = details: Homo sapiens
Method: as §1, §2, §3, §4

HCC-15 = details: Homo sapiens, HCC15
Method: as §1, §2, §3, §4

NOMO-1 = details: Homo sapiens
Method: as §1, §2, §3, §4

Structure (SMILES): CO[C@@H](C)c1ncc(N2CCN(C)CC2)cc1-c1c2c3cc(cc4c3n1CCC4)-c1csc(n1)C[C@H](NC(=O)[C@H]1[C@H](C)[C@@H]1C)C(=O)N1CCC[C@H](N1)C(=O)OCC(C)(C)C2 (atropisomer, axis not shown; (M)) [Example 24, (1r,2R,3S)-N-[(7S,13S)-(20M)-20-[2-[(1S)-1-methoxyethyl]-5-(4-methylpiperazin-1-yl)-3-pyridyl]-17,17-dimethyl-8,14-dioxo-15-oxa-4-thia-9,21,30,31-tetrazahexacyclo[23.3.1.1^2,5.1^9,13.0^19,27.0^21,26]hentriaconta-1 (28),2,5 (31), 19,25 (29),26-hexaen-7-yl]-2,3-dimethyl-cyclopropanecarboxamide]
- IC50 (SW 1088; SW 1088, NRAS (p.Q61K), read-out: IC50): 0.75 nM
- IC50 (PL-21; PL-21, KRAS (A146V), read-out: IC50): 1 nM
- IC50 (PANC-1): 0.95 nM
- IC50 (H9; H9, NRAS (p.Q61K), read-out: IC50): 0.72 nM
- IC50 (NCI-H2087; NCI-H2087, NRAS (p.Q61K), read-out: IC50): 0.21 nM
- IC50 (COR-L23): 0.53 nM
- IC50 (PA-1): 0.46 nM
- IC50 (KYSE-30; KYSE-30, HRAS (p.Q61L), read-out: IC50): 0.46 nM
- IC50 (KURAMOCHI): 100 nM
- IC50 (SW 1990): 1.6 nM
- IC50 (DLD-1; DLD-1, KRAS (G13D), read-out: IC50): 18 nM
- IC50 (CHP-212; CHP-212, NRAS (p.Q61K), read-out: IC50): 0.35 nM
- IC50 (LoVo; KRAS (G13D), read-out: IC50): 0.55 nM
- IC50 (SJSA-1; SJSA-1, KRAS (Q61H), read-out: IC50): 2.6 nM
- IC50 (NCI-H747; NCI-H747, KRAS (G13D), read-out: IC50): 0.72 nM
- IC50 (GP5d): 0.48 nM
- IC50 (SK-CO-1): 0.18 nM
- IC50 (NCI-H727): 0.14 nM
- IC50 (LU99): 0.59 nM
- IC50 (ONS-76; ONS-76, NRAS (p.Q61R), read-out: IC50): 0.9 nM
- IC50 (GP2d): 0.63 nM
- IC50 (KMS-28BM; KRAS (G12A), read-out: IC50): 0.63 nM
- IC50 (AML-193; AML-193, NRAS (p.G13V), read-out: IC50): 1.1 nM
- IC50 (KNS-62; KNS-62, HRAS (p.Q61L), read-out: IC50): 2.6 nM
- IC50 (Calu-6; Calu-6, KRAS (Q61K), read-out: IC50): 0.65 nM
- IC50 (SK-N-SH; NRAS (p.Q61K), read-out: IC50): 1000 nM
- IC50 (HCC-15; HCC-15, NRAS (p.Q61K), read-out: IC50): 0.68 nM
- IC50 (NOMO-1; NOMO-1, KRAS (G13D), read-out: IC50): 0.47 nM

Structure (SMILES): CCn1c(-c2cc(N3CCN(C)CC3)cnc2[C@H](C)OC)c2c3cc(ccc31)-c1csc(n1)C[C@H](NC(=O)[C@H]1C[C@@H]1C)C(=O)N1CCC[C@H](N1)C(=O)OCC(C)(C)O2 [Example A122, reference compound]
- IC50 (SW 1088): 2.6 nM
- IC50 (PL-21; PL-21): 2.1 nM
- IC50 (PANC-1): 0.68 nM
- IC50 (H9; H9): 1.6 nM
- IC50 (NCI-H2087; NCI-H2087): 0.44 nM
- IC50 (COR-L23): 0.78 nM
- IC50 (PA-1): 0.42 nM
- IC50 (KYSE-30; KYSE-30): 1 nM
- IC50 (KURAMOCHI): 100 nM
- IC50 (SW 1990): 1.5 nM
- IC50 (DLD-1; DLD-1): 20 nM
- IC50 (CHP-212; CHP-212): 1.1 nM
- IC50 (LoVo): 0.36 nM
- IC50 (SJSA-1; SJSA-1): 3.1 nM
- IC50 (NCI-H747; NCI-H747): 0.91 nM
- IC50 (GP5d): 0.41 nM
- IC50 (SK-CO-1): 0.33 nM
- IC50 (NCI-H727): 0.16 nM
- IC50 (LU99): 0.91 nM
- IC50 (ONS-76; ONS-76): 2.1 nM
- IC50 (GP2d): 0.55 nM
- IC50 (KMS-28BM): 0.88 nM
- IC50 (AML-193): 2.1 nM
- IC50 (KNS-62; KNS-62): 6.4 nM
- IC50 (Calu-6; Calu-6): 1.3 nM
- IC50 (SK-N-SH): 580 nM
- IC50 (HCC-15): 1.7 nM
- IC50 (NOMO-1; NOMO-1): 0.86 nM
